According to patent US20070060529A1, “ADMINISTRATION OF DIPEPTIDYL PEPTIDASE INHIBITORS” (priority 2005, published 2007):

System: db/db (BKS.Cg-+Lepr^db/+Lepr^db) mice
Assay: Plasma glucose after 21 days of administration in powder chow, alone or with pioglitazone
Format: in vivo
Details: male db/db mice, 21 days in powder chow, feeding condition; average (n=7) ± standard deviation
Method: Male db/db (BKS.Cg-+Lepr^db/+Lepr^db) mice (6 weeks of age, CLEA Japan (Tokyo, Japan)) were divided into 4 groups (n=7 in each group) comprising Group A to Group D. Group A had free access to CE-2 powder chow (CLEA Japan) for 21 days. […] Group C had free access to CE-2 powder chow (CLEA Japan) containing 0.0075% (w/w) of pioglitazone hydrochloride for 21 days. The dose of pioglitazone in Group C was calculated to be 17.7±0.6 (mean±SD) mg/kg body weight/day. […] During 21 days of administration of the powder chow, there were not significant differences in the administration amount of the powder chow in the above 4 groups. After 21 days of administration of the powder chow, blood samples were taken from the orbital veins of the mice by capillary pipette under feeding condition, and plasma glucose levels were enzymatically measured by using Autoanalyzer 7080 (Hitachi, Japan).
The values in the table means average (n=7)±standard deviation.

Compound | Plasma Glucose [mg/dL]
N#Cc1ccccc1Cn1c(N2CCC[C@@H](N)C2)ncc(F)c1=O [Compound I, 2-[[2-[(3R)-3-Amino-piperidinyl)-5-fluoro-6-oxo-6H-pyrimidinyl]methyl]-benzonitrile] | 412.4 ± 77.5
CCc1ccc(CCOc2ccc(CC3SC(=O)NC3=O)cc2)nc1 (centres unmarked) [Pioglitazone, 5-{[4-(2-(5-ethyl-2-pyridyl)ethoxy)phenyl]-methyl}-thiazolidine-2,4-dione] | 394.4 ± 47.9
